# Experimental data from patent publication EP0637237B1, “CALCIUM RECEPTOR-ACTIVE MOLECULES” (BRIGHAM AND WOMEN'S HOSPITAL, INC., priority 1993, dated 1994).
# Experiments:
# Format in all cases: cell-based
# [1] = target: T1, parathyroid cell Ca^2+ receptor (Homo sapiens, UniProt P41180); test: [Ca2+]i (fura-2) in human parathyroid cells; set-up: increase in [Ca2+]i: dose or concentration left out as unconfirmed
# T1 construct: Dissociated parathyroid cells were prepared from a parathyroid adenoma obtained by surgery from a patient with primary hyperparathyroidism; endogenous in cells; host or cells: primary human parathyroid cells from adenomatous or hyperplastic glands
# T1 sequence (P41180 20-1078): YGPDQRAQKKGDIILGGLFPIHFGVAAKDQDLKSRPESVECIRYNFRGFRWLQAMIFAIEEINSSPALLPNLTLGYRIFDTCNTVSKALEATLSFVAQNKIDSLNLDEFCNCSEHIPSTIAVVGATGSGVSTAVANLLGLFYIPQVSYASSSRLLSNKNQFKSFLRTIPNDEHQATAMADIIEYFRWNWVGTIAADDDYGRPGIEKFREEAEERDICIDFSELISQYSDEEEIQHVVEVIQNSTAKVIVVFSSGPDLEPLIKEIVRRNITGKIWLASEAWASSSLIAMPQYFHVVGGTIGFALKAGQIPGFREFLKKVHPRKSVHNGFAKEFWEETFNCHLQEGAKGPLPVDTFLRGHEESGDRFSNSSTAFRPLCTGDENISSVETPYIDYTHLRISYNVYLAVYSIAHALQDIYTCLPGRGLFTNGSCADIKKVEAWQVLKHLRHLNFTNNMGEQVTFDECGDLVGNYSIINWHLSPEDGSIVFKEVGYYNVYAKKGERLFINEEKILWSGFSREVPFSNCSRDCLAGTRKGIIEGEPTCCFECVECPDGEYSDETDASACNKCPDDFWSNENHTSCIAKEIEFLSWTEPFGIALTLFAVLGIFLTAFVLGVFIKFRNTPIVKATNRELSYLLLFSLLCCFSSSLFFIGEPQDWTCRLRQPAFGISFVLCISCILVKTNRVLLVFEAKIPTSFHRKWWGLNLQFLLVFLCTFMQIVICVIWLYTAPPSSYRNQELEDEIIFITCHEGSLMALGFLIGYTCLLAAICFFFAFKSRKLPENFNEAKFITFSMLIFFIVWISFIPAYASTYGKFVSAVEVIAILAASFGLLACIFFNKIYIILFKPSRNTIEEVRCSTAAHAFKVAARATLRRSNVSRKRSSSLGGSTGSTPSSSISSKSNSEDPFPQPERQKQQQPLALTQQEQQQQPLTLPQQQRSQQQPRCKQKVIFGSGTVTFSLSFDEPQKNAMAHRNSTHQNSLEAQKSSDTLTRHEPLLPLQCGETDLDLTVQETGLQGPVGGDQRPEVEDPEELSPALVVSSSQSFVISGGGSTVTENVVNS
# Protocol: Human parathyroid glands, obtained from patients undergoing surgical removal of parathyroid tissue for primary or uremic hyperparathyroidism (HPT), were treated similarly to bovine tissue. Glands were trimmed of excess fat and connective tissue and then minced with a fine scissors into approximate cubes of 2-3 mm. Dissociated parathyroid cells were prepared by collagenase digestion. Dissociated cells were then purified by centrifugation in Percoll buffer. The resultant parathyroid cell preparation was essentially devoid of red blood cells, adipocytes, and capillary tissue as assessed by phase contrast microscopy and Sudan black B staining. Dissociated and purified parathyroid cells were present as small clusters containing 5 to 20 cells.
# The cells were then pelleted, resuspended in the same buffer lacking the ester, and incubated a further 15 min at 37°C. The cells were subsequently washed twice with PCB containing 0.5 mM CaCl2 and 0.5% BSA and maintained at room temperature (about 20°C). Immediately before use, the cells were diluted five-fold with prewarmed 0.5 mM CaCl2-PCB to obtain a final BSA concentration of 0.1%. The concentration of cells in the cuvette used for fluorescence recording was 1-2 x 10^6/ml.
# The fluorescence of indicator-loaded cells was measured at 37°C in a spectrofluorimeter (Biomedical Instrumentation Group, University of Pennsylvania, Philadelphia, PA) equipped with a thermostated cuvette holder-and magnetic stirrer using excitation and emission wavelengths of 340 and 510 nm, respectively. […] Leakage of dye is dependent on temperature and most occurs within the first 2 min after warming the cells in the cuvette; dye leakage increases only very slowly thereafter. To correct the calibration for dye leakage, cells were placed in the cuvette and stirred at 37°C for 2-3 min. The cell suspension was then removed, the cells pelleted, and the supernatant returned to a clean cuvette. […] This estimate was subtracted from the apparent Fmin.
# [2] = target: T2, Ca^2+ receptor (Homo sapiens, UniProt P41180); test: Cl- current in Xenopus oocytes injected with human parathyroid poly(A)+ mRNA
# T2 construct: Oocytes were injected with poly(A)^+-enriched mRNA from human parathyroid tissue (hyperplastic glands from a case of secondary HPT); expressed in transfected cells; host or cells: Xenopus laevis oocytes injected with poly(A)+ mRNA from hyperplastic human parathyroid glands
# T2 sequence (P41180 20-1078): T1 sequence (P41180 20-1078)
# [3] = target: T3, bovine parathyroid Ca^2+-receptor (Bos taurus, UniProt P35384); test: Cl- current in Xenopus oocytes expressing the cloned receptor (BoPCaR 1); details: neomycin 20-100 µM
# T3 construct: expressed in transfected cells; host or cells: Xenopus laevis oocytes injected with cRNA from the BoPCaR 1 cDNA (plasmid pSPORT1, ATCC 75416)
# T3 sequence (P35384 20-1085): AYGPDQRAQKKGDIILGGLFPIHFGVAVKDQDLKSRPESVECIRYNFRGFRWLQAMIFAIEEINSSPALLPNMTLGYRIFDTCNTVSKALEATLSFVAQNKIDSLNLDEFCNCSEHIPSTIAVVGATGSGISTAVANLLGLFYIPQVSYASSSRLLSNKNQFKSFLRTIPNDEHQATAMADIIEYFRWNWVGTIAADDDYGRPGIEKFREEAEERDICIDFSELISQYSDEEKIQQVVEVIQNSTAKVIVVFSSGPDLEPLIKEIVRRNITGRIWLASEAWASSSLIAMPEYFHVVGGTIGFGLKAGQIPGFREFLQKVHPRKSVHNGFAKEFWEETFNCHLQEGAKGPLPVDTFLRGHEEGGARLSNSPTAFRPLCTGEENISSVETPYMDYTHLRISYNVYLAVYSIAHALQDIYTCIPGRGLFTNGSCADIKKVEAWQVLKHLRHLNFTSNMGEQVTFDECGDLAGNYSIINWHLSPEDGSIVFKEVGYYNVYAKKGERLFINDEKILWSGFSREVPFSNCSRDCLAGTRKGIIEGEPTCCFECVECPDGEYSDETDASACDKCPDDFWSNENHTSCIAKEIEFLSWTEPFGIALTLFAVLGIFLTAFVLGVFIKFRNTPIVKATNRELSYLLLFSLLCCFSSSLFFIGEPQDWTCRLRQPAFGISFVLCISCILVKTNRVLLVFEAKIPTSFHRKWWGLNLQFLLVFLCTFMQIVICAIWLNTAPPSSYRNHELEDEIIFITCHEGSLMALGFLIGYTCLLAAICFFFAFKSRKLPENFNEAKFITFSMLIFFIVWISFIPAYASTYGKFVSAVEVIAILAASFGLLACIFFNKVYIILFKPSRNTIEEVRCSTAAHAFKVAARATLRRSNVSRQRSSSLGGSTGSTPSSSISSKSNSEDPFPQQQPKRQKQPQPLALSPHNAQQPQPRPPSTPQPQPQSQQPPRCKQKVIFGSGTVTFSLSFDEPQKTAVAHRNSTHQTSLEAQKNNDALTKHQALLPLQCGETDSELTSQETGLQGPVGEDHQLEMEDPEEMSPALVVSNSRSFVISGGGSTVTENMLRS
# [4] = system: osteoclast Ca^2+ receptor; test: [Ca2+]i (indo-1) in single rat osteoclasts
compound,measurement,setting,value
NC[C@@H]1O[C@H](O[C@H]2[C@@H](O)[C@H](O[C@@H]3[C@@H](O)[C@H](N)C[C@H](N)[C@H]3O[C@H]3O[C@H](CN)[C@@H](O)[C@H](O)[C@H]3N)O[C@@H]2CO)[C@H](N)[C@@H](O)[C@@H]1O [neomycin B],pattern of change in [Ca2+]i,"[1]; human parathyroid cells from adenomatous tissue, Fig. 19",not only a transient but additionally a steady-state increase in [Ca^2+]i
same,increase in [Ca2+]i,[1]; tested,large increase in [Ca^2+]i
same,mobilization of intracellular Ca2+ in oocytes expressing the Ca2+ receptor,"[2]; hexacyclen 135 µM, neomycin 100 µM, NPS 382 5 mM",effective
same,change in current in water-injected oocytes,"[2]; neomycin B 10 mM, five water-injected oocytes",failed to cause any change in the current
same,changes in Cl- current,[3],produced changes in Cl^- current in oocytes essentially identical to those produced by Ca^2+ or Gd^3+
same,effect on basal [Ca2+]i,[4]; 5 mM,without effect on basal [Ca^2+]i
same,effect on the response to subsequent extracellular Ca2+ (25 mM),"[4]; neomycin 10 mM, spermine 20 mM, verapamil 100 µM",did not block
same,increase in [Ca2+]i in rat osteoclasts,"[4]; neomycin 10 mM, spermine 10 or 20 mM",Neither neomycin (10 mM) nor spermine (10 or 20 mM) caused increases in [Ca^2+]i
same,increase in [Ca2+]i in osteoclasts,"[4]; neomycin B 1 mM, spermine 1 or 5 mM, Fig. 23",failed to evoke any increase in [Ca^2+]i
same,increase in [Ca2+]i in osteoclasts,"[4]; screening, small responses were detected",none of these caused any large increase in [Ca^2+]i
